From patent US20210284621A1 (priority 2018, published 2021) come the findings set out here.

Assay [1] addresses T1, CB1 receptor (Homo sapiens, UniProt P21554). In words: CB1 competitive radioligand binding assay ([3H] SR141716A). On the set-up: expressed in transfected cells; host or cells: Chem-1 cells. The procedure, abridged:
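Chem-1 cells expressing human recombinant CB1 incubated 90 min at 37° C with 2.0 nM [3H]SR141716A and compound at 0.5 μM (1% DMSO) in HEPES pH 7.4 buffer with MgCl2, CaCl2, 0.2% BSA. Read-out is % inhibition of radioligand binding.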

Another assay concerns LPS-induced PBMCs. Briefly: Inflammatory cytokine release from LPS-induced PBMCs (Luminex). In kind it is cell-based, human. The settings on record: fold change from LPS-treated PBMCs, compounds 10 μM (DEX 1 μg/ml) 2 h, then LPS 0.1 μg/ml 24 h, negative = reduced. The procedure, abridged:
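Human PBMCs from healthy donors pretreated 2 hours with compound at 10 μM (triplicate), then stimulated with 0.1 μg/ml LPS for 24 hours. Supernatant cytokines measured by magnetic Luminex; values given as fold change versus LPS-treated PBMCs, negative meaning reduction; cytotoxicity also assessed.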

Assay [2] deals with T1, CB1 receptor. Briefly: cell-based. On the set-up: host or cells: PathHunter cell lines.
In assay [3] the target is T2, CB2 receptor (Homo sapiens, UniProt P34972). Briefly: CB2 competitive radioligand binding assay ([3H] WIN-55,212-2). On the set-up: expressed in transfected cells; host or cells: CHO-K1 cells. The settings on record: for Fold Selectivity (CB1/CB2): Table 3, ratio of Ki CB1/CB2. The procedure, abridged: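 Single-concentration displacement: 2.4 nM [3H]WIN-55,212-2 competed with 0.05 μM compound (1% DMSO) for 90 min at 37 °C on human CB2 expressed in CHO-K1 cells (HEPES 20 mM, pH 7.0, 0.5% BSA). Result given as % inhibition of bound radioligand.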

Assay [4] deals with 12 systems of human primary cells. In words: BioMAP Diversity PLUS phenotypic screen. In kind it is cell-based. Particulars: 3.3 μM; for Immune modulation, cell surface and tissue remodeling biomarkers: changes at least 1.5-fold from vehicle control. On the procedure: Compounds of the invention were assayed for their effects on 148 biomarkers of inflammation, immune modulation and tissue remodeling in the BioMAP® Diversity PLUS® (DiscoverX) platform designed to model aspects of human diseases in vitro (Kunkel 2004, Berg 2006, Melton 2013).
The example compounds (3.3 μM) in Table 8 induced increases or decreases in the levels of the indicated 20 biomarkers, which are at least 1.5-fold change from vehicle control and are outside the significance prediction envelop. All compounds presented in Table 8 were not cytotoxic at the concentration tested.

Assay [5] has as its target T2, CB2 receptor. In words: cAMP Assay #2: Hit Hunter cAMP assay, Gi-coupled agonist activity, CB2. In kind it is cell-based. On the set-up: host or cells: cAMP Hunter cell lines. Particulars: for CB2 fold selectivity: Hit Hunter cAMP, CB1 EC50 / CB2 EC50.
The target in assay [6] is T2, CB2 receptor. Briefly: cell-based. On the set-up: host or cells: cAMP Hunter cell lines. The procedure, abridged: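 PathHunter β-Arrestin enzyme fragment complementation cells, EA-tagged β-Arrestin and PK-tagged receptor, exposed to compound for 90 to 180 minutes at 37° C. or room temperature, 1% vehicle. Chemiluminescence read 1 h after detection reagent; agonist % activity relative to vehicle and MAX control ligand.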

Assay [7] deals with T1, CB1 receptor. Briefly: cAMP Assay #2: Hit Hunter cAMP assay, Gi-coupled agonist activity, CB1. In kind it is cell-based. On the set-up: host or cells: PathHunter cell lines.
Assay [8] deals with T1, CB1 receptor. Briefly: cAMP Assay #1: CB1 adenylylcyclase assay in CHO cells. On the set-up: expressed in transfected cells; host or cells: CHO cells. In kind it is cell-based. The procedure:
(§1) Compounds of the invention were assayed in an adenylylcyclase assay to determine agonist activity on the CB1 and CB2 receptors, the results of which are provided in Table 4. Exemplary methods for the adenylylcyclase assay can be found in the literature, for example, in Rhee, M-H., et al. Cannabinol Derivatives: Binding to Cannabinoid Receptors and Inhibition of Adenylylcyclase. J Med Chem. 40: 3228-3233 (1997).
CB1 Activity as determined by Adenylylcyclase Assay: CB1 receptor agonist activity was measured by measuring cAMP production. A compound of the invention was incubated with CHO cells expressing human recombinant CB1 for 20 minutes at 37° C.
(§2) Determination of EC50 values: The EC50 values (concentration producing a half-maximal response) were determined by non-linear regression analysis of the concentration-response curves generated with mean replicate values using Hill equation curve fitting: Y=D+[(A−D)/(1+(C/C50)^nH)], where Y=response, A=left asymptote of the curve, D=right asymptote of the curve, C=compound concentration, and C50=EC50, and nH=slope factor. This analysis was performed using software developed at Cerep (Hill software) and validated by comparison with data generated by the commercial software SigmaPlot® 4.0 for Windows® (© 1997 by SPSS Inc.).

In assay [9] the target is T2, CB2 receptor. Briefly: cAMP Assay #1: CB2 adenylylcyclase assay in CHO cells. In kind it is cell-based. On the set-up: expressed in transfected cells; host or cells: CHO cells. The procedure:
as §1
CB2 Activity as determined by Adenylylcyclase Assay: CB2 receptor agonist activity was measured by measuring cAMP production. A compound of the invention was incubated with CHO cells expressing human recombinant CB2 for 10 minutes at 37° C.
as §2

Setting [10] is: OOR = out of standard curve range.
Where [11] appears, read: PathHunter agonist mode, read-out: CB2 Activity (β-Arrestin).

T2 sequence (P34972 whole entry): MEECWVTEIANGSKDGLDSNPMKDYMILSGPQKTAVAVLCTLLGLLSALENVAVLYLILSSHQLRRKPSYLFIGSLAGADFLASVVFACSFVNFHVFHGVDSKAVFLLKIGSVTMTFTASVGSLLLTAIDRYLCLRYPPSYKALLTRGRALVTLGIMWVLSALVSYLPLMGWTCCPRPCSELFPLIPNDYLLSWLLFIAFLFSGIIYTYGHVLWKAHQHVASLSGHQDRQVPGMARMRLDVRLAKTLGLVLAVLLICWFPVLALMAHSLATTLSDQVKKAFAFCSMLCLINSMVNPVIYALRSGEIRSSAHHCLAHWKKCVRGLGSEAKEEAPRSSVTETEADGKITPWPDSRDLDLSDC
T1 sequence (P21554 whole entry): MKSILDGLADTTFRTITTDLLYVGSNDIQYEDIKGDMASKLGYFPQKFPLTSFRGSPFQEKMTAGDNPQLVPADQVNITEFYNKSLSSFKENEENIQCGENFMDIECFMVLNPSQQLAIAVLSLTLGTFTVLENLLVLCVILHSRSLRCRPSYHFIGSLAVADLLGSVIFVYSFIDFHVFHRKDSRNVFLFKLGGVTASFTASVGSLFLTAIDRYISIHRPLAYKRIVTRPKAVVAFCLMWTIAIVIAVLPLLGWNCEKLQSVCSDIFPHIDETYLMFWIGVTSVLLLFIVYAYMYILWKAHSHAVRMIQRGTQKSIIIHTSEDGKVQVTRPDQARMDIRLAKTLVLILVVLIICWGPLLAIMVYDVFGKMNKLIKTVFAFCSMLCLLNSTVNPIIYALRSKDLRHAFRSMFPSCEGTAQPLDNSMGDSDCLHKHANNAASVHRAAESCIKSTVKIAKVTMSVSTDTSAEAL

At CB1 receptor [1], `CCCCCCC(C)(C)c1cc(O)c2c(c1)OC(C)(C)[C@@H]1CC=C(C(=O)NC(C)C)C[C@@H]21` [Compound 91, (6aR,10aR)-1-hydroxy-N-isopropyl-6,6-dimethyl-3-(2-methyloctan-2-yl)-6a,7,10,10a-tetrahydro-6H-benzo[c]chromene-9-carboxamide] had a Ki of 34.8 nM. In the assay with LPS-induced PBMCs, this compound returned an IL17A of 1.2 fold change, an IL-1β of −1.4 fold change, an IL-4 of −1.6 fold change and an IL-6 of −2.2 fold change. Besides, in the assay with LPS-induced PBMCs, the IL-8 is on record as −1.3 fold change, the IL-10 was −2.3 fold change, the MCP-1 is −1.4 fold change and the TNFα is −1.2 fold change. In the assay on LPS-induced PBMCs (setting [10]), the “IL-12 (p70)” value is listed as −1.7 fold change and the L-31 was −2.1 fold change. On CB1 receptor [2], this compound gave an EC50 of 20.9 nM. Further, on CB2 receptor [3], the affinity, expressed as Ki, was 3.2 nM and the “Fold Selectivity (CB1/CB2)” value was 10.9. Further, the “Immune modulation, cell surface and tissue remodeling biomarkers” value (from here on “Immune modulation”) in assay [4] was “Reduced Eotaxin-3, P-selectin, CD69, and EGFR, IL-10”. Also, at CB2 receptor [5], the EC50 turned out to be 1.5 nM and the CB2 fold selectivity is recorded as 4.5. The EC50 at CB2 receptor [6] turned out to be 1.7 nM. The compound further gave an EC50 at CB1 receptor [7] of 6.9 nM.
Take `CCCCCCC(C)(C)c1cc(O)c2c(c1)OC(C)(C)c1ccc(C(=O)O)cc1-2` [Compound 31, 1-hydroxy-6,6-dimethyl-3-(2-methyloctan-2-yl)-6H-benzo[c]chromene-9-carboxylic acid]: the Ki on CB1 receptor [1] is over 3000 nM; on CB2 receptor [3], 2040 nM. 0.5 µM produced 12% inhibition at CB1 receptor [1] (0.5 μM compound, 2.0 nM [3H] SR141716A, 90 min 37° C.). Also, the EC50 at CB1 receptor [2] was over 3000 nM; on CB1 receptor [8], over 100 nM; on CB2 receptor [9] it was 53 nM; on CB2 receptor [5], 68.4 nM; on CB2 receptor [6] (setting [11]), 109 nM; at CB1 receptor [7], 636 nM. On CB2 receptor [3] (0.05 μM compound, 2.4 nM [3H] WIN-55,212-2, 90 min 37° C.), this compound came in with an inhibition at 0.05 µM of 20%. Also, the “Immune modulation” value in [4] is “Reduced Eotaxin-3 and IP-10; increased MMP-1”. Besides, the CB2 fold selectivity at CB2 receptor [5] turned out to be 9.3.
`CCCCCCC(C)(C)c1cc(O)c2c(c1)OC(C)(C)[C@@H]1CC=C(C(=O)NC(C)(C)C(F)(F)F)C[C@@H]21` [Compound 100, (6aR,10aR)-1-hydroxy-6,6-dimethyl-3-(2-methyloctan-2-yl)-N-(1,1,1-trifluoro-2-methylpropan-2-yl)-6a,7,10,10a-tetrahydro-6H-benzo[c]chromene-9-carboxamide]: the Ki on CB1 receptor [1] was determined as 72.3 nM; on CB2 receptor [3] it was 7.2 nM. For the same compound, the EC50 came out at 257 nM at CB1 receptor [2], 2.1 nM at CB2 receptor [5], 1.2 nM on CB2 receptor [6] (setting [11]) and 107 nM at CB1 receptor [7]. For the same compound, the “Fold Selectivity (CB1/CB2)” value on CB2 receptor [3] was 10.0. In addition, in assay [4] (cell type in which anti-proliferative effect was seen), the Anti-proliferation entry is “Dermal fibroblasts”. Also, the “Immune modulation” value in [4] was “Reduced Eotaxin-3, P-selectin, and CD69,”. At CB2 receptor [5], this compound displayed a CB2 fold selectivity of 49.7.
